Reference: ChEMBL document CHEMBL1201862, “PubChem BioAssay data set” (2004)
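Exposure lasted 48 hours, with cells grown in 96-well plates and compounds tested at five concentrations. GI50 = concentration required for 50% inhibition of growth.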 Active and inactive are the calls of the source. Rule as the data show it: active = GI50 up to about 1.1 µM and inactive = higher.

Assays:
Test in all cases: DTP human tumour cell line panel, 48 h
U-251 = system: U-251
SK-MEL-2 = system: SK-MEL-2
OVCAR-3 = system: OVCAR-3
SF-295 = system: SF-295
COLO 205 = system: COLO 205
A549 = system: A549
ACHN = system: ACHN
786-0 = system: 786-0
SF-268 = system: SF-268
MOLT-4 = system: MOLT-4
SK-OV-3 = system: SK-OV-3
M14 = system: M14
KM12 = system: KM12
OVCAR-8 = system: OVCAR-8
A498 = system: A498
IGROV-1 = system: IGROV-1
HOP-92 = system: HOP-92

Measured: GI50

Cc1ccc(/C=C/C(=O)c2ccc(Cl)c(Cl)c2)cc1
inactive: U-251 > 100 µM | SK-MEL-2 > 100 µM | OVCAR-3 > 100 µM | SF-295 > 100 µM | COLO 205 > 100 µM | A549 > 100 µM | ACHN > 100 µM | 786-0 > 100 µM | SF-268 > 100 µM | MOLT-4 > 100 µM | SK-OV-3 > 10 µM | M14 > 100 µM | KM12 > 100 µM | OVCAR-8 > 100 µM | A498 > 100 µM | IGROV-1 > 100 µM

CCOc1ccc(/N=N/c2c(-c3ccccc3)nn(C(=O)CC(=O)Nc3ccccc3Cl)c2-c2ccccc2)cc1
inactive: U-251 48.9 µM | SK-MEL-2 > 100 µM | OVCAR-3 35.8 µM | SF-295 68.5 µM | HOP-92 48.8 µM | COLO 205 64.9 µM | A549 67.3 µM | ACHN 33.3 µM | 786-0 > 100 µM | SF-268 39 µM | MOLT-4 34.1 µM | SK-OV-3 > 100 µM | M14 > 100 µM | KM12 46.1 µM | OVCAR-8 89.7 µM | IGROV-1 > 100 µM

O=C1C(=O)N(C(=O)c2ccc(Cl)c(Cl)c2)c2ccccc21
inactive: U-251 > 100 µM | OVCAR-3 > 100 µM | SF-295 > 100 µM | COLO 205 > 100 µM | A549 > 100 µM | ACHN > 100 µM | 786-0 > 100 µM | SF-268 > 100 µM | MOLT-4 > 100 µM | SK-OV-3 > 100 µM | M14 > 100 µM | KM12 > 100 µM | OVCAR-8 > 100 µM | IGROV-1 > 100 µM

O=CC1=CCCN(CCc2c[nH]c3ccccc23)C1
inactive: U-251 52.5 µM | SK-MEL-2 63.5 µM | OVCAR-3 42.6 µM | SF-295 57.3 µM | HOP-92 64.9 µM | COLO 205 77.6 µM | A549 186 µM | ACHN 70.6 µM | 786-0 62.2 µM | SF-268 68.2 µM | MOLT-4 13.2 µM | SK-OV-3 86.5 µM | KM12 56.9 µM | OVCAR-8 48.5 µM | IGROV-1 86.5 µM

C/C=C/COC(=O)CO[N+](=O)[O-]
inactive: U-251 > 100 µM | SK-MEL-2 > 100 µM | OVCAR-3 > 100 µM | SF-295 > 100 µM | HOP-92 > 100 µM | COLO 205 > 100 µM | A549 > 100 µM | ACHN > 100 µM | 786-0 > 100 µM | SF-268 > 100 µM | MOLT-4 > 100 µM | SK-OV-3 > 100 µM | M14 > 100 µM | KM12 > 100 µM | OVCAR-8 > 100 µM | IGROV-1 > 100 µM
